Where “and” joins values, the source holds several entries; their conditions need not be identical. Equal values may be shown once.
Assay: molar heat capacity at constant pressure
Settings: 101.33 kPa, Small (less than 1 g) adiabatic calorimetry

CCOS(=O)(=O)[O-].CCn1cc[n+](C)c1 [1-ethyl-3-methylimidazolium ethyl sulfate]
Settings	molar heat capacity at constant pressure
180.75 K, Glass	245 J/K/mol
181.34 K, Glass	247.6 J/K/mol
182.03 K, Glass	250.7 J/K/mol
182.57 K, Glass	253.8 J/K/mol
183.25 K, Glass	259.2 J/K/mol
183.91 K, Glass	266.1 J/K/mol
184.33 K, Glass	269.6 J/K/mol
185.05 K, Liquid	286.4 J/K/mol
185.68 K, Liquid	306.2 J/K/mol
185.91 K, Liquid	312.8 J/K/mol
186.66 K, Liquid	340.5 J/K/mol
187.36 K, Liquid	351.6 J/K/mol and 351.8 J/K/mol
188.23 K, Liquid	351.6 J/K/mol
188.86 K, Liquid	353 J/K/mol
189.2 K, Liquid	353 J/K/mol
189.84 K, Liquid	354 J/K/mol
190 K, Liquid	354.1 J/K/mol
190.38 K, Liquid	354.4 J/K/mol
191.46 K, Liquid	354.4 J/K/mol
192.04 K, Liquid	354.7 J/K/mol
193.08 K, Liquid	354.7 J/K/mol
193.85 K, Liquid	354.7 J/K/mol
194.7 K, Liquid	354.7 J/K/mol
195.65 K, Liquid	354.9 J/K/mol
196.33 K, Liquid	354.9 J/K/mol
197.47 K, Liquid	355.1 J/K/mol
197.95 K, Liquid	355.1 J/K/mol
199.29 K, Liquid	355.4 J/K/mol
199.58 K, Liquid	355.4 J/K/mol
200 K, Liquid	355.5 J/K/mol
201.11 K, Liquid	355.6 J/K/mol
201.27 K, Liquid	355.6 J/K/mol
201.65 K, Liquid	355.9 J/K/mol
202.93 K, Liquid	356.1 J/K/mol
203 K, Liquid	355.9 J/K/mol
203.57 K, Liquid	356.1 J/K/mol
204.74 K, Liquid	356.1 J/K/mol
204.76 K, Liquid	356.6 J/K/mol
205.5 K, Liquid	356.3 J/K/mol
206.48 K, Liquid	356.6 J/K/mol
206.59 K, Liquid	356.8 J/K/mol
207.44 K, Liquid	356.8 J/K/mol
208.23 K, Liquid	356.8 J/K/mol
208.43 K, Liquid	357 J/K/mol
209.37 K, Liquid	357.3 J/K/mol
209.97 K, Liquid	357 J/K/mol
210 K, Liquid	357.2 J/K/mol
210.26 K, Liquid	357.3 J/K/mol
211.31 K, Liquid	357.5 J/K/mol
211.72 K, Liquid	357.5 J/K/mol
212.11 K, Liquid	357.7 J/K/mol
213.25 K, Liquid	358 J/K/mol
213.47 K, Liquid	357.7 J/K/mol
213.95 K, Liquid	358 J/K/mol
215.19 K, Liquid	358.2 J/K/mol
215.23 K, Liquid	358 J/K/mol
215.8 K, Liquid	358.5 J/K/mol
217.12 K, Liquid	358.7 J/K/mol
217.65 K, Liquid	358.7 J/K/mol
219.06 K, Liquid	359.2 J/K/mol
219.5 K, Liquid	359.2 J/K/mol
220 K, Liquid	359.2 J/K/mol
221 K, Liquid	359.4 J/K/mol
221.36 K, Liquid	359.6 J/K/mol
222.94 K, Liquid	359.9 J/K/mol
223.21 K, Liquid	359.9 J/K/mol
224.88 K, Liquid	360.3 J/K/mol
225.07 K, Liquid	360.3 J/K/mol
226.82 K, Liquid	361.1 J/K/mol
226.93 K, Liquid	360.8 J/K/mol
228.76 K, Liquid	361.3 J/K/mol
228.8 K, Liquid	361.3 J/K/mol
230 K, Liquid	361.6 J/K/mol
230.66 K, Liquid	361.8 J/K/mol
230.7 K, Liquid	361.8 J/K/mol
232.53 K, Liquid	362.2 J/K/mol
232.64 K, Liquid	362.2 J/K/mol
234.39 K, Liquid	362.7 J/K/mol
234.58 K, Liquid	362.7 J/K/mol
236.26 K, Liquid	363.2 J/K/mol
236.53 K, Liquid	363.4 J/K/mol
238.13 K, Liquid	363.9 J/K/mol
238.47 K, Liquid	363.9 J/K/mol
240 K, Liquid	364.3 J/K/mol
240.01 K, Liquid	364.4 J/K/mol
240.41 K, Liquid	364.6 J/K/mol
241.88 K, Liquid	364.8 J/K/mol
242.36 K, Liquid	365.1 J/K/mol
243.76 K, Liquid	365.3 J/K/mol
244.3 K, Liquid	365.5 J/K/mol
245.64 K, Liquid	365.8 J/K/mol
246.24 K, Liquid	366.2 J/K/mol
247.52 K, Liquid	366.5 J/K/mol
248.19 K, Liquid	366.7 J/K/mol
249.39 K, Liquid	367 J/K/mol
250 K, Liquid	367.1 J/K/mol
250.13 K, Liquid	367.4 J/K/mol
251.27 K, Liquid	367.4 J/K/mol
252.07 K, Liquid	367.9 J/K/mol
253.16 K, Liquid	368.1 J/K/mol
254.02 K, Liquid	368.6 J/K/mol
255.04 K, Liquid	368.6 J/K/mol
255.96 K, Liquid	369.1 J/K/mol
256.92 K, Liquid	369.1 J/K/mol
257.91 K, Liquid	369.8 J/K/mol
258.8 K, Liquid	369.8 J/K/mol
259.85 K, Liquid	370.3 J/K/mol
260 K, Liquid	370.1 J/K/mol
260.69 K, Liquid	370.3 J/K/mol
261.8 K, Liquid	370.7 J/K/mol
263.74 K, Liquid	371.4 J/K/mol
265.69 K, Liquid	372.2 J/K/mol
267.63 K, Liquid	372.6 J/K/mol
269.58 K, Liquid	373.3 J/K/mol
270 K, Liquid	373.3 J/K/mol
271.52 K, Liquid	373.8 J/K/mol
273.46 K, Liquid	374.3 J/K/mol
275.41 K, Liquid	375 J/K/mol
277.35 K, Liquid	375.7 J/K/mol
279.3 K, Liquid	376.2 J/K/mol
280 K, Liquid	376.4 J/K/mol
281.24 K, Liquid	376.6 J/K/mol
283.19 K, Liquid	377.4 J/K/mol
285.13 K, Liquid	378.1 J/K/mol
287.08 K, Liquid	378.3 J/K/mol
289.02 K, Liquid	379.2 J/K/mol
290 K, Liquid	379.6 J/K/mol
290.96 K, Liquid	380 J/K/mol
292.91 K, Liquid	380.7 J/K/mol
294.85 K, Liquid	381.4 J/K/mol
296.79 K, Liquid	382.1 J/K/mol
298.15 K, Liquid	382.8 J/K/mol
298.74 K, Liquid	383 J/K/mol
300 K, Liquid	383.6 J/K/mol
300.68 K, Liquid	383.7 J/K/mol
302.62 K, Liquid	384.7 J/K/mol
304.57 K, Liquid	385.4 J/K/mol
306.51 K, Liquid	386.3 J/K/mol
308.45 K, Liquid	387.3 J/K/mol
310 K, Liquid	388 J/K/mol
310.39 K, Liquid	388 J/K/mol
312.34 K, Liquid	388.9 J/K/mol
314.28 K, Liquid	389.6 J/K/mol
316.22 K, Liquid	390.6 J/K/mol
318.17 K, Liquid	391.5 J/K/mol
320 K, Liquid	392.6 J/K/mol
320.11 K, Liquid	392.5 J/K/mol
322.05 K, Liquid	393.7 J/K/mol
324 K, Liquid	394.4 J/K/mol
325.94 K, Liquid	395.3 J/K/mol
327.89 K, Liquid	396.3 J/K/mol
329.83 K, Liquid	397.2 J/K/mol
330 K, Liquid	397.3 J/K/mol
331.77 K, Liquid	398.1 J/K/mol
333.72 K, Liquid	399.1 J/K/mol
335.66 K, Liquid	400.3 J/K/mol
337.61 K, Liquid	401.5 J/K/mol
339.55 K, Liquid	402.2 J/K/mol
340 K, Liquid	402.3 J/K/mol
341.5 K, Liquid	403.1 J/K/mol
343.44 K, Liquid	404.3 J/K/mol
345.39 K, Liquid	405 J/K/mol
347.33 K, Liquid	405.9 J/K/mol
349.28 K, Liquid	407.1 J/K/mol
350 K, Liquid	407.5 J/K/mol
351.22 K, Liquid	408.1 J/K/mol
353.17 K, Liquid	409.3 J/K/mol
355.11 K, Liquid	410.2 J/K/mol
357.06 K, Liquid	411.1 J/K/mol
359 K, Liquid	412.1 J/K/mol
360 K, Liquid	412.8 J/K/mol
360.94 K, Liquid	413.3 J/K/mol
362.88 K, Liquid	414.2 J/K/mol
364.83 K, Liquid	415.2 J/K/mol
366.77 K, Liquid	416.3 J/K/mol
370 K, Liquid	418.4 J/K/mol
